The molecules below were run against T1, ΔF508-CFTR (Homo sapiens, UniProt P13569, DEL508-508) (assay: hBE equivalent current (Ieq) assay: AUC of equivalent chloride current after forskolin/VX-770 in primary lung epithelial cells homozygous for ΔF508). Conditions: relative to CFTR amplifier (Compound A)+VX-809 (3 uM), compound at 10 uM and Compound A at 3 uM, 24 h treatment.
T1 construct: Primary lung epithelial cells homozygous for the Cystic Fibrosis-causing ΔF508 mutation were differentiated for a minimum of 4 weeks; endogenous in cells; host or cells: primary lung epithelial cells (hBE) homozygous for ΔF508, differentiated at an air-liquid interface
Type: cell-based
In short: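 ΔF508/ΔF508 primary human bronchial epithelia, differentiated ≥4 weeks at air-liquid interface, treated basolaterally with compound for 24 h at 37 °C. Transepithelial voltage and conductance by 24-channel current clamp at 36 °C: benzamil, then forskolin plus VX-770 for 27 min, then bumetanide; AUC of equivalent chloride current over vehicle.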

T1 sequence (P13569 with tags, fused parts or gaps DEL508-508): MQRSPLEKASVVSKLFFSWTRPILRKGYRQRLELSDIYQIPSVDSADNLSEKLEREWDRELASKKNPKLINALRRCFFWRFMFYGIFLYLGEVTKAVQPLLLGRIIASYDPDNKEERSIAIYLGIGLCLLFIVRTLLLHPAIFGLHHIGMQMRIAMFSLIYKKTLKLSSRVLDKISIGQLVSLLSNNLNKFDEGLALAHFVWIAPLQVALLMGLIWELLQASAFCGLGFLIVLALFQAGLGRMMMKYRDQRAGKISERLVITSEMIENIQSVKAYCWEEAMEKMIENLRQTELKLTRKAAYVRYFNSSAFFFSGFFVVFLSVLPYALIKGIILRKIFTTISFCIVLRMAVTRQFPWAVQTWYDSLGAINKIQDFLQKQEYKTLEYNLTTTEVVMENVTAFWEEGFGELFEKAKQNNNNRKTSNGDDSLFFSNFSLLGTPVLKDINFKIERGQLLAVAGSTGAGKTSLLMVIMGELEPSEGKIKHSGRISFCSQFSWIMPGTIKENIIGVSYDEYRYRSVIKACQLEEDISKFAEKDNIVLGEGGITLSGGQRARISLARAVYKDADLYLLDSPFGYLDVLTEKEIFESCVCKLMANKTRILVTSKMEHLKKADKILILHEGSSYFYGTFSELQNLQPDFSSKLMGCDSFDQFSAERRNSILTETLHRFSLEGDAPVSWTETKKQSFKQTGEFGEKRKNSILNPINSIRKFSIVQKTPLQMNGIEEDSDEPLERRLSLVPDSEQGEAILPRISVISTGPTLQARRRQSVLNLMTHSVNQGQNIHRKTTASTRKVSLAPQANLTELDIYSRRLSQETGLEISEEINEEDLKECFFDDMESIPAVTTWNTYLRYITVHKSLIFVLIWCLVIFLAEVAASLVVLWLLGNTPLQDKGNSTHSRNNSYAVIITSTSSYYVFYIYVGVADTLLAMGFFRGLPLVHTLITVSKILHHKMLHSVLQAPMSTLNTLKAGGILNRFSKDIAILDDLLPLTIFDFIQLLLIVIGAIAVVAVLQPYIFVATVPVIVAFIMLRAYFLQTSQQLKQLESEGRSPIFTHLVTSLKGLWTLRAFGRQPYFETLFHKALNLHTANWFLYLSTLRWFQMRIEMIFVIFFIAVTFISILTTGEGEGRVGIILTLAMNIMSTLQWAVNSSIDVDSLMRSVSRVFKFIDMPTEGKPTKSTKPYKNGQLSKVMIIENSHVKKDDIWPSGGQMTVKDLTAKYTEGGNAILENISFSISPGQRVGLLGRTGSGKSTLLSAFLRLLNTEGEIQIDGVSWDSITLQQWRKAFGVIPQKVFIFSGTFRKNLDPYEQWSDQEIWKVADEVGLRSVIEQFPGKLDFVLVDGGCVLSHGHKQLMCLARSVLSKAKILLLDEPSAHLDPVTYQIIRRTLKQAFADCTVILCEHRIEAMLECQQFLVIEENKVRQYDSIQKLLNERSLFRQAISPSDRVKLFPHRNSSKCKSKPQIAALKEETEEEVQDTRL

**Q.** `Cc1c(-c2cc(C(=O)[O-])c3c(O[C@H](C)C4CCOCC4)ccc(C)c3n2)sc2ccccc12.[Na+]` [Compound 330] was tested. Which Activity did it give?
**A.** ++ (activity>50% of CFTR amplifier+VX-809 (3 uM) with compound at 10 uM and Compound A at 3 uM)

**Q.** How did the Activity turn out when `Cc1c(-c2cc(C(=O)[O-])c3c(OC4CCOCC4)ccc(C)c3n2)sc2ccccc12.[Na+]` [Compound 331] was run?
**A.** ++ (activity>50% of CFTR amplifier+VX-809 (3 uM) with compound at 10 uM and Compound A at 3 uM)

**Q.** `Cc1c(-c2cc(C(=O)[O-])c3c(OC4CCOCC4)ccc(C)c3n2)oc2ccccc12.[Na+]` [Compound 332] was tested. Which Activity did it give?
**A.** ++ (activity>50% of CFTR amplifier+VX-809 (3 uM) with compound at 10 uM and Compound A at 3 uM)

**Q.** With `Cc1c(-c2cc(C(=O)[O-])c3c(OC4CC(C)(C)OC(C)(C)C4)ccc(C)c3n2)sc2ccccc12.[Na+]` [Compound 333] as the molecule, how does the Activity read?
**A.** ++ (activity>50% of CFTR amplifier+VX-809 (3 uM) with compound at 10 uM and Compound A at 3 uM)

**Q.** `Cc1c(-c2cc(C(=O)[O-])c3c(OC4CC(C)(C)OC(C)(C)C4)ccc(C)c3n2)oc2ccccc12.[Na+]` [Compound 334] was tested. Which Activity did it give?
**A.** ++ (activity>50% of CFTR amplifier+VX-809 (3 uM) with compound at 10 uM and Compound A at 3 uM)

**Q.** For `Cc1c(-c2cc(C(=O)O)c3c(OC4CCCc5ccccc54)ccc(C)c3n2)oc2ccccc12` (stereo not shown) [Compound 335], which Activity is on record?
**A.** ++ (activity>50% of CFTR amplifier+VX-809 (3 uM) with compound at 10 uM and Compound A at 3 uM)

**Q.** For `Cc1c(-c2cc(C(=O)O)c3c(OC4CCc5ccccc54)ccc(C)c3n2)oc2ccccc12` (stereo not shown) [Compound 336], which Activity is on record?
**A.** ++ (activity>50% of CFTR amplifier+VX-809 (3 uM) with compound at 10 uM and Compound A at 3 uM)

**Q.** `Cc1c(-c2cc(C(=O)[O-])c3c(OCC4CC(C)(C)OC(C)(C)C4)ccc(C)c3n2)sc2ccccc12.[Na+]` [Compound 337] was tested. Which Activity did it give?
**A.** ++ (activity>50% of CFTR amplifier+VX-809 (3 uM) with compound at 10 uM and Compound A at 3 uM)

**Q.** Which Activity does the source give for `Cc1c(-c2cc(C(=O)[O-])c3c(OCC4CC(C)(C)OC(C)(C)C4)ccc(C)c3n2)oc2ccccc12.[Na+]` [Compound 338] here?
**A.** ++ (activity>50% of CFTR amplifier+VX-809 (3 uM) with compound at 10 uM and Compound A at 3 uM)

**Q.** With `Cc1c(-c2cc(C(=O)[O-])c3c(OCC4COC4)ccc(C)c3n2)oc2ccccc12.[Na+]` [Compound 343] as the molecule, how does the Activity read?
**A.** ++ (activity>50% of CFTR amplifier+VX-809 (3 uM) with compound at 10 uM and Compound A at 3 uM)

**Q.** For `Cc1c(-c2cc(C(=O)[O-])c3c(OCC4COC4)ccc(C)c3n2)sc2ccccc12.[Na+]` [Compound 346], which Activity is on record?
**A.** ++ (activity>50% of CFTR amplifier+VX-809 (3 uM) with compound at 10 uM and Compound A at 3 uM)

**Q.** `Cc1c(-c2cc(C(=O)O)c3c(OC(C)c4ccc5nccn5c4)ccc(C)c3n2)oc2ccccc12` (stereo not shown) [Compound 347] was tested. Which Activity did it give?
**A.** + (activity<50% of an CFTR amplifier (Compound A)+VX-809 (3 uM) with compound at 10 uM and Compound A at 3 uM)

**Q.** `Cc1c(-c2cc(C(=O)[O-])c3c(O[C@H]4C[C@H](C5CCOCC5)C4)ccc(C)c3n2)oc2ccccc12.[Na+]` [Compound 350] was tested. Which Activity did it give?
**A.** ++ (activity>50% of CFTR amplifier+VX-809 (3 uM) with compound at 10 uM and Compound A at 3 uM)

**Q.** For `Cc1c(-c2cc(C(=O)[O-])c3c(O[C@@H]4C[C@H]5CC[C@@H](C4)O5)ccc(C)c3n2)sc2ccccc12.[Na+]` [Compound 352], which Activity is on record?
**A.** ++ (activity>50% of CFTR amplifier+VX-809 (3 uM) with compound at 10 uM and Compound A at 3 uM)

**Q.** `Cc1c(-c2cc(C(=O)[O-])c3c(O[C@H]4C[C@H]5CC[C@@H](C4)O5)ccc(C)c3n2)sc2ccccc12.[Na+]` [Compound 353] was tested. Which Activity did it give?
**A.** ++ (activity>50% of CFTR amplifier+VX-809 (3 uM) with compound at 10 uM and Compound A at 3 uM)

**Q.** How did the Activity turn out when `Cc1c(-c2cc(C(=O)[O-])c3c(O[C@@H]4C[C@H]5CC[C@@H](C4)O5)ccc(C)c3n2)oc2ccccc12.[Na+]` [Compound 354] was run?
**A.** ++ (activity>50% of CFTR amplifier+VX-809 (3 uM) with compound at 10 uM and Compound A at 3 uM)

**Q.** With `Cc1c(-c2cc(C(=O)[O-])c3c(O[C@H]4C[C@H]5CC[C@@H](C4)O5)ccc(C)c3n2)oc2ccccc12.[Na+]` [Compound 355] as the molecule, how does the Activity read?
**A.** ++ (activity>50% of CFTR amplifier+VX-809 (3 uM) with compound at 10 uM and Compound A at 3 uM)

**Q.** With `Cc1c(-c2cc(C(=O)[O-])c3c(OC[C@@H]4C[C@H]5CC[C@@H](C4)O5)ccc(C)c3n2)oc2ccccc12.[Na+]` [Compound 356] as the molecule, how does the Activity read?
**A.** ++ (activity>50% of CFTR amplifier+VX-809 (3 uM) with compound at 10 uM and Compound A at 3 uM)

**Q.** Which Activity does the source give for `Cc1c(-c2cc(C(=O)[O-])c3c(OC[C@H]4C[C@H]5CC[C@@H](C4)O5)ccc(C)c3n2)oc2ccccc12.[Na+]` [Compound 357] here?
**A.** ++ (activity>50% of CFTR amplifier+VX-809 (3 uM) with compound at 10 uM and Compound A at 3 uM)

**Q.** Which Activity does the source give for `Cc1c(-c2cc(C(=O)[O-])c3c(OC[C@@H]4C[C@H]5CC[C@@H](C4)O5)ccc(C)c3n2)sc2ccccc12.[Na+]` [Compound 358] here?
**A.** ++ (activity>50% of CFTR amplifier+VX-809 (3 uM) with compound at 10 uM and Compound A at 3 uM)

**Q.** How did the Activity turn out when `Cc1c(-c2cc(C(=O)[O-])c3c(OC[C@H]4C[C@H]5CC[C@@H](C4)O5)ccc(C)c3n2)sc2ccccc12.[Na+]` [Compound 359] was run?
**A.** ++ (activity>50% of CFTR amplifier+VX-809 (3 uM) with compound at 10 uM and Compound A at 3 uM)

**Q.** `Cc1c(-c2cc(C(=O)O)c3c(OC(C)c4ccc(S(N)(=O)=O)cc4)ccc(C)c3n2)oc2ccccc12` (stereo not shown) [Compound 360] was tested. Which Activity did it give?
**A.** ++ (activity>50% of CFTR amplifier+VX-809 (3 uM) with compound at 10 uM and Compound A at 3 uM)

**Q.** For `Cc1c(-c2cc(-c3noc(O)n3)c3c(OC(C)c4ccccc4)ccc(C)c3n2)oc2ccccc12` (stereo not shown) [Compound 361], which Activity is on record?
**A.** ++ (activity>50% of CFTR amplifier+VX-809 (3 uM) with compound at 10 uM and Compound A at 3 uM)

**Q.** Which Activity does the source give for `Cc1c(-c2cc(-c3cc(O)[nH]n3)c3c(OC(C)c4ccccc4)ccc(C)c3n2)oc2ccccc12` (stereo not shown) [Compound 362] here?
**A.** + (activity<50% of an CFTR amplifier (Compound A)+VX-809 (3 uM) with compound at 10 uM and Compound A at 3 uM)

**Q.** With `Cc1c(-c2cc(C(=O)[O-])c3c(OCC4CCC5(CC4)COC5)ccc(C)c3n2)oc2ccccc12.[Na+]` [Compound 367] as the molecule, how does the Activity read?
**A.** ++ (activity>50% of CFTR amplifier+VX-809 (3 uM) with compound at 10 uM and Compound A at 3 uM)

**Q.** How did the Activity turn out when `Cc1c(-c2cc(C(=O)[O-])c3c(OC4CC(C)(C)C4)ccc(C)c3n2)oc2ccccc12.[Na+]` [Compound 368] was run?
**A.** ++ (activity>50% of CFTR amplifier+VX-809 (3 uM) with compound at 10 uM and Compound A at 3 uM)

**Q.** With `Cc1c(-c2cc(C(=O)[O-])c3c(OC4CC5(COC5)C4)ccc(C)c3n2)oc2ccccc12.[Na+]` [Compound 369] as the molecule, how does the Activity read?
**A.** ++ (activity>50% of CFTR amplifier+VX-809 (3 uM) with compound at 10 uM and Compound A at 3 uM)

**Q.** Which Activity does the source give for `Cc1c(-c2cc(C(=O)[O-])c3c(OC4CC5(COC5)C4)ccc(C)c3n2)sc2ccccc12.[Na+]` [Compound 370] here?
**A.** ++ (activity>50% of CFTR amplifier+VX-809 (3 uM) with compound at 10 uM and Compound A at 3 uM)

**Q.** How did the Activity turn out when `Cc1c(-c2cc(C(=O)[O-])c3c(OC(C)c4ccc(C5COC5)cc4)ccc(C)c3n2)oc2ccccc12.[Na+]` (stereo not shown) [Compound 372] was run?
**A.** ++ (activity>50% of CFTR amplifier+VX-809 (3 uM) with compound at 10 uM and Compound A at 3 uM)

**Q.** For `Cc1c(-c2cc(C(=O)[O-])c3c(OC(C)c4ccc(C5COC5)cc4)ccc(C)c3n2)sc2ccccc12.[Na+]` (stereo not shown) [Compound 373], which Activity is on record?
**A.** ++ (activity>50% of CFTR amplifier+VX-809 (3 uM) with compound at 10 uM and Compound A at 3 uM)

**Q.** How did the Activity turn out when `Cc1c(-c2cc(C(=O)[O-])c3c(OC[C@H]4C[C@@](C)(O)C4)ccc(C)c3n2)oc2ccccc12.[Na+]` [Compound 374] was run?
**A.** ++ (activity>50% of CFTR amplifier+VX-809 (3 uM) with compound at 10 uM and Compound A at 3 uM)
